Drawing on ChEMBL document CHEMBL1126438, “DNA alkylation properties of the duocarmycins: (+)-duocarmycin A, epi-(+)-duocarmycin A, ent-()-duocarmycin A and epi,ent-()-duocarmycin A” (Bioorg Med Chem Lett, 1992), this text covers IC50 for four compounds.

Structures are written as SMILES. Values after ≈ are worked out from the molar mass of the structure shown.

For one assay, the system named is P388. Nature of the assay: In vitro evaluation for cytotoxicity against P388 murine leukemia cell line. Type of assay: functional, cell-based, Mus musculus.
A further assay concerns B16. Nature of the assay: In vitro evaluation for cytotoxicity against B16 melanoma. Type of assay: functional, cell-based. Conditions: Mus musculus.
The subject of another assay is L1210. Nature of the assay: In vitro evaluation for cytotoxicity against L1210 cell line. In kind it is functional, cell-based. Conditions: Mus musculus.
[1] abbreviates: Mus musculus, P388, read-out: IC50.

Take `COC(=O)[C@]1(C)N=C2C(=O)C=C3N(C(=O)c4cc5cc(OC)c(OC)c(OC)c5[nH]4)C[C@H]4C[C@@]34C2=C1O`: the IC50 (commonly the point on the concentration scale where inhibition reaches its midpoint) with P388 (p388) turned out to be 0.002 ng/mL (≈ 0.00394 nM); in the assay on B16 it was 0.2 ng/mL (≈ 0.394 nM); with L1210 it was 0.1 ng/mL (≈ 0.197 nM).

As to `COC(=O)[C@]1(C)N=C2C(=O)C=C3N(C(=O)c4cc5cc(OC)c(OC)c(OC)c5[nH]4)C[C@@H]4C[C@]34C2=C1O`, the IC50 with P388 (setting [1]) was at least 0.3 ng/mL; in the assay on B16, above 3 ng/mL; in the assay on L1210 it was above 12 ng/mL.

For `COC(=O)[C@@]1(C)N=C2C(=O)C=C3N(C(=O)c4cc5cc(OC)c(OC)c(OC)c5[nH]4)C[C@H]4C[C@@]34C2=C1O`, the half-maximal inhibitory concentration (IC50) in the assay on P388 (setting [1]) stood at 0.007 ng/mL (≈ 0.0138 nM); in the assay on B16, 0.8 ng/mL (≈ 1.58 nM); with L1210, 0.8 ng/mL (≈ 1.58 nM).

For `COC(=O)[C@@]1(C)N=C2C(=O)C=C3N(C(=O)c4cc5cc(OC)c(OC)c(OC)c5[nH]4)C[C@@H]4C[C@]34C2=C1O`, the values for the 50% inhibitory concentration (IC50) in the assay with P388 (setting [1]), in the assay with B16 and with L1210 were at least 0.3 ng/mL, above 3 ng/mL and above 11 ng/mL, respectively.
